Values quoted from earlier work, collected in publication PMC2711878 (ACS chemical biology, 2009).
pKi: −log10 of the molar value.

Assays:
[1] = biological target: monofunctional P. falciparum WT DHFR
[2] = biological target: P. falciparum double mutant C59R/S108N DHFR
[3] = biological target: P. falciparum N51I/C59R/S108N/I164L DHFR
[4] = in vivo

Row | Structure (SMILES) | Ki value, WT DHFR [1] | Ki value, double mutant DHFR [2] | Ki value, quadruple mutant DHFR [3] | oral bioavailability [4] | pKi ([1]; read-out: Ki, WT DHFR, monofunctional enzyme) | Ki, fold less inhibitory than WT, double mutant ([2]; C59R/S108N, monofunctional enzyme) | Ki, fold less inhibitory than WT, quadruple mutant ([3]; N51I/C59R/S108N/I164L, monofunctional enzyme)
1 | CC1(C)N=C(N)N=C(N)N1OCCCOc1cc(Cl)c(Cl)cc1Cl [WR99210] | sub-nanomolar | sub-nanomolar | sub-nanomolar | poor |  |  | 
2 | CCc1nc(N)nc(N)c1-c1ccc(Cl)cc1 [pyrimethamine] |  |  |  |  | 8.82 | 50 fold | > 500 fold
